Test results from patent US20250257041A1, “INDUCERS OF INTEGRATED STRESS RESPONSE TO TREAT CANCER” (The Board of Regents of The University of Texas System, priority 2022, published 2025).
Read-outs that look alike come from different tables or passages of the source.

Tested on: HCT116 WT
Assay: Proliferation of HCT116 colorectal cell line, Cell TiterGlo
Assay type: cell-based, human
Details: for IC50: Homo sapiens; for HCT116 IC50 (uM) HCT116 WT: wild type HCT116
Protocol: Briefly, compounds were tested for their effect on proliferation of HCT116 colorectal cell lines using Cell TiterGlo (Promega). Each compound was tested in a 10-point dose response experiment in triplicate. Multiple values in the column titled HCT116 WT reflect separate independent experiments. The three columns titled “HCT116 WT (repeat)”, “HCT116-CGN2KO” and “HCT116 WT+ISRIB” provide data for selected compounds that were tested simultaneously under three conditions. The HCT116 WT column lists IC50 against the wild type HCT116 colorectal cancer cell line. The HCT116-CGN2KO lists IC50 data for cells in which one component of the integrated stress response, GCN2, has been knocked out using CRISPR technology.

[1] = HCT-116, wild type HCT116, 10-point dose response in triplicate, multiple values = separate independent experiments, read-out: HCT116 IC50 (uM) HCT116 WT
[2] = 10-point dose response in triplicate, multiple values = separate independent experiments

IC50 [1] | SMILES | other results
0.033 µM | Cn1nc(-c2ccc(NC(=O)c3ccccc3Cl)cc2)cc1NC(=O)C1CCCCC1 [SW394546, 2-Chloro-N-(4-(5-(Cyclohexanecarboxamido)-1-methyl-1H-pyrazol-3-yl)phenyl)benzamide] | 
0.03 µM | Cn1nc(-c2ccc(NC(=O)c3ccccc3Cl)cc2)cc1NC(=O)C1CC2CCC1CC2 (stereo not drawn) [SW394969, N-(3-(4-(2-chlorobenzamido)phenyl)-1-methyl-1H-pyrazol-5-yl)bicyclo[2.2.2]octane-2-carboxamide] | 
0.07 µM | Cn1nc(-c2ccc(NC(=O)c3ccccc3COCCN=[N+]=[N-])cc2)cc1NC(=O)c1cccc(C(=O)c2ccccc2)c1 [SW394738, 2-((2-azidoethoxy)methyl)-N-(4-(5-(3-benzoylbenzamido)-1-methyl-1H-pyrazol-3-yl)phenyl)benzamide] | 
1.1 µM | Cn1nc(-c2ccc(NC(=O)OC(C)(C)C)cc2)cc1NC(=O)c1ccccc1 [SW388713, tert-Butyl (4-(5-benzamido-1-methyl-1H-pyrazol-3-yl)phenyl)carbamate] | 
0.121 µM | Cn1nc(-c2ccc(NC(=O)c3ccccc3COCCNC(=O)OC(C)(C)C)cc2)cc1NC(=O)c1ccccc1 [SW394532, tert-butyl (2-((2-((4-(5-benzamido-1-methyl-1H-pyrazol-3-yl)phenyl)carbamoyl)benzyl)oxy)ethyl)carbamate] | 
0.27 µM | Cn1nc(-c2ccc(NC(=O)c3ccccc3C3CCNCC3)cc2)cc1NC(=O)c1ccccc1 [SW394767, N-(4-(5-benzamido-1-methyl-1H-pyrazol-3-yl)phenyl)-2-(piperidin-4-yl)benzamide] | 
0.023 µM | C#Cc1cccc(C(=O)Nc2cc(-c3ccc(NC(=O)c4cccnc4Cl)cc3)nn2C)c1 [SW394487, 2-Chloro-N-(4-(5-(3-ethynylbenzamido)-1-methyl-1H-pyrazol-3-yl)phenyl)nicotinamide] | 
4.1 µM | C#Cc1cccc(C(=O)Nc2cc(-c3ccc(NC(=O)c4ccccc4-c4ccc(N=[N+]=[N-])cc4)cc3)nn2C)c1 [SW394549, 4′-Azido-N-(4-(5-(3-ethynylbenzamido)-1-methyl-1H-pyrazol-3-yl)phe-nyl)[1,1′-biphenyl]-2-carboxamide] | 
0.062 µM | Cn1nc(-c2ccc(NC(=O)c3ccccc3Cl)cc2)cc1NC(=O)c1cccc(OCCNC(=O)OC(C)(C)C)c1 [SW394968, tert-butyl (2-(3-((3-(4-(2-chlorobenzamido)phenyl)-1-methyl-1H-pyrazol-5-yl)carbamoyl)phenoxy)ethyl)carbamate] | 
0.1 µM | C#CCOc1cccc(C(=O)Nc2cc(-c3ccc(NC(=O)c4ccccc4N=[N+]=[N-])cc3)nn2C)c1 [SW393186, 2-Azido-N-(4-(1-methyl-5-(3-(prop-2-yn-1-yloxy)benzamido)-1H-pyrazol-3-yl)phenyl)benza-mide] | 
0.14 µM | Cn1nc(-c2ccc(NC(=O)c3ccccc3Cl)cc2)cc1NC(=O)c1cccc(C(=O)c2ccccc2)c1 [SW393187, N-(4-(5-(3-benzoylbenzamido)-1-methyl-1H-pyrazol-3-yl)phenyl)-2-chlorobenzamide] | 
0.04 µM | Cn1nc(-c2ccc(NC(=O)c3ccccc3F)cc2)cc1NC(=O)c1ccccc1 [SW393241, N-(4-(5-Benzamido-1-methyl-1H-pyrazol-3-yl)phenyl)-2-fluorobenzamide] | 
 | Cn1nc(-c2ccc(NC(=O)c3ccccc3Cl)cc2)cc1NS(=O)(=O)c1ccccc1 [SW394768, 2-Chloro-N-(4-(1-methyl-5-(phenylsulfonamido)-1H-pyrazol-3-yl)phenyl)benzamide] | HCT116 IC50 (uM) HCT116 WT [2]: inactive
0.03 µM | Cc1ncccc1C(=O)Nc1ccc(-c2cc(NC(=O)c3ccccc3F)n(C)n2)c(F)c1 [SW394695, N-(3-Fluoro-4-(5-(2-fluorobenzamido)-1-methyl-1H-pyrazol-3-yl)phenyl)-2-methylnicotinamide] | 
0.32 µM | Cn1nc(-c2ccc(NC(=O)C3CCOCC3)cc2)cc1NC(=O)c1ccccc1 [SW394517, N-(4-(5-Benzamido-1-methyl-1H-pyrazol-3-yl)phenyl)tetrahydro-2H-pyran-4-carboxamide] | 
0.02 µM | CN(C)c1cccc(C(=O)Nc2cc(-c3ccc(NC(=O)c4ccccc4Cl)cc3)nn2C)c1 [SW394870, 2-Chloro-N-(4-(5-(3-(dimethylamino)benzamido)-1-methyl-1H-pyrazol-3-yl)phenyl)benzamide] | 
3.84 µM | Cn1nc(-c2ccc(NC(=O)C3CCN(C(=O)OC(C)(C)C)CC3)cc2)cc1NC(=O)c1ccccc1 [SW394490, tert-butyl4-((4-(5-benzamido-1-methyl-1H-pyrazol-3-yl)phenyl)carbamoyl)piperidine-1-carboxylate] | 
0.19 µM | Cn1nc(-c2ccc(C(=O)Nc3ccccc3Cl)cc2)cc1NC(=O)c1ccccc1 [SW393293, 4-(5-benzamido-1-methyl-1H-pyrazol-3-yl)-N-(2-chlorophenyl)benzamide] | 

IC50 [1] | SMILES | other results
0.025 µM | Cn1nc(-c2ccc(NC(=O)c3ccccc3-c3cccnc3)cc2)cc1NC(=O)c1ccccc1 [SW394486, N-(4-(5-Benzamido-1-methyl-1H-pyrazol-3-yl)phenyl)-2-(pyridin-3-yl)benzamide] | 
0.77 µM | Cn1nc(-c2ccc(NC(=O)c3ccccc3N3CCOCC3)cc2)cc1NC(=O)c1ccccc1 [SW394697, N-(4-(5-Benzamido-1-methyl-1H-pyrazol-3-yl)phenyl)-2-morpholinobenzamide] | 
0.37 µM | C#CCOc1cccc(C(=O)Nc2cc(-c3ccc(NC(=O)c4cc(N=[N+]=[N-])ccc4Cl)cc3)nn2C)c1 [SW393213, 5-Azido-2-chloro-N-(4-(1-methyl-5-(3-(prop-2-yn-1-yloxy)benzamido)-1H-pyrazol-3-yl)phe-nyl)benzamide] | 
0.17 µM | Cn1nc(-c2ccc(NC(=O)c3ccccc3Cl)cc2)cc1NC(=O)c1cccc(C#CCN)c1 [SW394693, N-(4-(5-(3-(3-aminoprop-1-yn-1-yl)benzamido)-1-methyl-1H-pyrazol-3-yl)phenyl)-2-chlorobenzamide] | 
0.024 µM | Cn1nc(-c2ccc(NC(=O)C3CCCCC3)cc2)cc1NC(=O)c1ccccc1 [SW394442, N-(3-(4-(Cyclohexanecarboxamido)phenyl)-1-methyl-1H-pyrazol-5-yl)benzamide] | 
0.067 µM | Cn1nc(-c2ccc(NC(=O)c3ccccc3Cl)cc2)cc1NC(=O)N1CCCCC1 [SW394874, N-(3-(4-(2-Chlorobenzamido)phenyl)-1-methyl-1H-pyrazol-5-yl)piperidine-1-carboxamide] | 
0.05 µM | Cn1nc(-c2ccc(NC(=O)c3ccccc3Cl)cc2)cc1NC(=O)c1cccc(CNC(=O)OC(C)(C)C)c1 [SW394896-1, tert-butyl (3-((3-(4-(2-chlorobenzamido)phenyl)-1-methyl-1H-pyrazol-5-yl)carbamoyl)benzyl)carbamate] | 
0.69 µM | COc1cccc(C(=O)Nc2cc(-c3ccc(NC(=O)OC(C)(C)C)cc3)nn2C)c1 [SW388712, tert-Butyl (4-(5-(3-methoxybenzamido)-1-methyl-1H-pyrazol-3-yl)phenyl)carbamate] | 
0.02 µM | Cn1nc(-c2ccc(NC(=O)c3ccccc3Cl)cc2)cc1NC(=O)c1cccc(NC(=O)OC(C)(C)C)c1 [SW394897-1, tert-butyl (3-((3-(4-(2-chlorobenzamido)phenyl)-1-methyl-1H-pyrazol-5-yl)carbamoyl)phenyl)carbamate] | 
0.02 µM | Cn1nc(-c2ccc(NC(=O)c3ccccc3Cl)cc2)cc1NC(=O)c1cccc(OCCNc2ccc([N+](=O)[O-])c3nonc23)c1 [SW394971, 2-Chloro-N-(4-(1-methyl-5-(3-(2-((7-nitrobenzo[c][1,2,5]oxadiazol-4-yl)amino)ethoxy)benz-amido)-1H-pyrazol-3-yl)phenyl)benzamide] | 
 | Cn1nc(-c2ccc(NC(=O)c3ccccc3COCCN=[N+]=[N-])cc2)cc1NC(=O)c1cccc(C2(C(F)(F)F)N=N2)c1 [SW394739, 2-((2-azidoethoxy)methyl)-N-(4-(1-methyl-5-(3-(3-(trifluoromethyl)-3H-diazirin-3-yl)benzamido)-1H-pyrazol-3-yl)phenyl)benzamide] | IC50 (HCT-116, read-out: HCT116 IC50 (uM) HCT116 WT): 0.4 µM
1.09 µM | COc1cccc(C(=O)Nc2ccc(-c3cc(NC(=O)c4ccccc4)n(C)n3)cc2)c1 [SW388711, N-(4-(5-Benzamido-1-methyl-1H-pyrazol-3-yl)phenyl)-3-methoxybenzamide] | 
0.01 µM | CC(=O)Nc1cccc(C(=O)Nc2cc(-c3ccc(NC(=O)c4ccccc4Cl)cc3)nn2C)c1 [SW394894-1, N-(4-(5-(3-acetamidobenzamido)-1-methyl-1H-pyrazol-3-yl)phenyl)-2-chlorobenzamide] | 
0.051 µM | Cn1nc(-c2ccc(NC(=O)c3ccccc3Cl)cc2)cc1NC(=O)C1CCCC1 [SW394600, 2-Chloro-N-(4-(5-(cyclopentanecarboxamido)-1-methyl-1H-pyrazol-3-yl)phenyl)benzamide] | 
0.02 µM | Cc1ncccc1C(=O)Nc1ccc(-c2cc(NC(=O)c3ccccc3Cl)n(C)n2)c(F)c1 [SW394699, N-(4-(5-(2-chlorobenzamido)-1-methyl-1H-pyrazol-3-yl)-3-fluorophenyl)-2-methylnicotinamide] | 
10 µM | CN1CCN(c2ccccc2C(=O)Nc2ccc(-c3cc(NC(=O)c4ccccc4)n(C)n3)cc2)CC1 [SW394698, N-(4-(5-Benzamido-1-methyl-1H-pyrazol-3-yl)phenyl)-2-(4-methylpiperazin-1-yl)benzamide] | 
0.57 µM | CCn1nc(-c2ccc(NC(=O)c3ccccc3Cl)cc2)cc1NC(=O)c1ccccc1 [SW393214, N-(4-(5-Benzamido-1-ethyl-1H-pyrazol-3-yl)phenyl)-2-chlorobenzamide] | 
 | COc1cccc(C(=O)Nc2cc(-c3ccc(N)cc3)nn2C)c1 [SW388715, N-(3-(4-Aminophenyl)-1-methyl-1H-pyrazol-5-yl)-3-methoxybenzamide] | HCT116 IC50 (uM) HCT116 WT [2]: inactive
